In patent US10815230B2, “Casein kinase 1 delta inhibitor” (ELECTROPHORETICS LIMITED, priority 2015, dated 2020):

Legend:
[1] = system: TMHT (Thy-1 Mutated Human Tau) mouse; assay: In-vivo efficacy, Morris Water Maze in tau transgenic mice; settings: 30 mg/kg orally for 8 weeks
Description: Various compounds of different classes (among them also antibody treatments) were positively tested for their efficacy in the TMHT model. Published examples are the γ-secretase modulator CHF5074 (Lanzilotta A, et al. The γ-secretase modulator CHF5074 reduces the accumulation of native hyperphosphoxylated tau in a transgenic mouse model of Alzheimer's disease. J Mol Neurosci. 45(1):22--33 (2010)), sodium selenate (Corcoran N M et al. Sodium selenate specifically activates PP2A phosphatase, dephosphorylates tau and reverses memory deficits in an Alzheimer's disease model. J Clin Neurosci. 17(8):1025-33 (2010)) and grape-seed polyphenol extract (Wang J et al. Grape derived polyphenols attenuate tau neuropathology in a mouse model of Alzheimer's disease. […] The effects of the compounds on learning in the Morris Mater Maze (MWM) were evaluated. Blood (plasma) and brain samples were collected after sacrification. Samples collected at sacrifice were plasma, left cortex, left hippocampus, right cortex, right hippocampus, remainder of left brain hemisphere, remainder of right brain hemisphere. In total 48 animals were used and allocated to 4 treatment groups. The start position of the mouse and the position of the platform (FIG. 1) in the different trials of the MWM were as indicated in Table 9: […] A descriptive statistical analysis was performed on all evaluated parameters. All data were represented as mean ±standard error of mean (SEM). MWM learning curve data of three trials per day were averaged. Over a period of 4 days, the ability to find a hidden platform using visual cues was measured performing 3 trials a day. By comparison of the learning curves, the cognitive abilities of the different treatment groups and possible drug effects were evaluated.

CK1a1 = CK1a1 (Homo sapiens, UniProt P48729); assay: Kinase selectivity, % remaining activity; format: biochemical; settings: CK1a1, 10 μM compound, 10 μM ATP, duplicate
Sequence of CK1a1 (P48729 whole entry): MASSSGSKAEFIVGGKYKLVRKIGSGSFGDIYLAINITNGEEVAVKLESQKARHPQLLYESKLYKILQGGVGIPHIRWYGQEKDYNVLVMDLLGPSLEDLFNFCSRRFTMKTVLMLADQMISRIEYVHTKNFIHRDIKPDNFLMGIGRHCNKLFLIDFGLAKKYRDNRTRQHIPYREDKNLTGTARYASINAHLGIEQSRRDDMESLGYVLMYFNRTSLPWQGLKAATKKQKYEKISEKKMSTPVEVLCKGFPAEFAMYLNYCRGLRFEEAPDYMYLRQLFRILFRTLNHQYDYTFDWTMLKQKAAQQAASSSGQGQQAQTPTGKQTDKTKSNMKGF
Method: (§1) Compounds were tested in single dose duplicate mode at a concentration of 10 μM (in DMSO) and reactions were carried out at 10 μM ATP, Table 3 reports the % of remaining activity (relative to DMSO).

CK1e = CK1e (Homo sapiens, UniProt P49674); assay: Kinase selectivity, % remaining activity; format: biochemical; settings: 10 μM compound, 10 μM ATP, duplicate
Sequence of CK1e (P49674 whole entry): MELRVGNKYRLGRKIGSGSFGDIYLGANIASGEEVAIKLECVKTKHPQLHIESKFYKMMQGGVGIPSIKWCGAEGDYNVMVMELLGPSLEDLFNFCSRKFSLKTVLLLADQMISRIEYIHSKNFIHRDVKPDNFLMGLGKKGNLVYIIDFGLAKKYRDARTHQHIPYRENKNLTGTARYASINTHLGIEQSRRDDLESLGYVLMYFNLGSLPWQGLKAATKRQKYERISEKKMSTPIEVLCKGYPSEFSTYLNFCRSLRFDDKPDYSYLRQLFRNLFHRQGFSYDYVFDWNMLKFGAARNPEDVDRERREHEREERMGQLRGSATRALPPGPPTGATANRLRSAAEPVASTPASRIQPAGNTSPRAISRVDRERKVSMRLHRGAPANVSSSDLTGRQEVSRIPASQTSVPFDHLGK
Method: (§2) A two-tier strategy to determine the selectivity of compound A was applied: first, the compound was tested at a single concentration (in duplicate) to determine the %-remaining activity of the target kinase. Subsequently, the IC50 of compound A and comparative compounds for casein kinase 1 delta were determined.
as §1

CK1g1 = CK1g1 (Homo sapiens, UniProt Q9HCP0); assay: Kinase selectivity, % remaining activity; format: biochemical; settings: 10 μM compound, 10 μM ATP, duplicate
Method: as §2, §1

CK1g2 = CK1g2 (Homo sapiens, UniProt P78368); assay: Kinase selectivity, % remaining activity; format: biochemical; settings: 10 μM compound, 10 μM ATP, duplicate
Sequence of CK1g2 (P78368 whole entry, species assumed): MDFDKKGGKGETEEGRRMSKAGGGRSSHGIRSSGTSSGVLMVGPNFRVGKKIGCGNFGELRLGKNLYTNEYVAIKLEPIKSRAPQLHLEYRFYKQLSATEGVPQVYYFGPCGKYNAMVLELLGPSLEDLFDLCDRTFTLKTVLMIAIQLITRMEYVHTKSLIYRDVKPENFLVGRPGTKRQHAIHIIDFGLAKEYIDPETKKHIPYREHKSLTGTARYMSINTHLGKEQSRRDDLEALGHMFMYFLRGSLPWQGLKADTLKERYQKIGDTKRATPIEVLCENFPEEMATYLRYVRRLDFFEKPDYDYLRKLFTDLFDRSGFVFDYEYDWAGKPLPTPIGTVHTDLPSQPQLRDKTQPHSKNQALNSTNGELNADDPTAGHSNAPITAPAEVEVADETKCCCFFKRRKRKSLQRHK
Method: as §2, §1

EGFR = EGFR (Homo sapiens, UniProt P00533); assay: Kinase selectivity, % remaining activity; format: biochemical; settings: 10 μM compound, 10 μM ATP, duplicate
Sequence of EGFR (P00533 25-1210): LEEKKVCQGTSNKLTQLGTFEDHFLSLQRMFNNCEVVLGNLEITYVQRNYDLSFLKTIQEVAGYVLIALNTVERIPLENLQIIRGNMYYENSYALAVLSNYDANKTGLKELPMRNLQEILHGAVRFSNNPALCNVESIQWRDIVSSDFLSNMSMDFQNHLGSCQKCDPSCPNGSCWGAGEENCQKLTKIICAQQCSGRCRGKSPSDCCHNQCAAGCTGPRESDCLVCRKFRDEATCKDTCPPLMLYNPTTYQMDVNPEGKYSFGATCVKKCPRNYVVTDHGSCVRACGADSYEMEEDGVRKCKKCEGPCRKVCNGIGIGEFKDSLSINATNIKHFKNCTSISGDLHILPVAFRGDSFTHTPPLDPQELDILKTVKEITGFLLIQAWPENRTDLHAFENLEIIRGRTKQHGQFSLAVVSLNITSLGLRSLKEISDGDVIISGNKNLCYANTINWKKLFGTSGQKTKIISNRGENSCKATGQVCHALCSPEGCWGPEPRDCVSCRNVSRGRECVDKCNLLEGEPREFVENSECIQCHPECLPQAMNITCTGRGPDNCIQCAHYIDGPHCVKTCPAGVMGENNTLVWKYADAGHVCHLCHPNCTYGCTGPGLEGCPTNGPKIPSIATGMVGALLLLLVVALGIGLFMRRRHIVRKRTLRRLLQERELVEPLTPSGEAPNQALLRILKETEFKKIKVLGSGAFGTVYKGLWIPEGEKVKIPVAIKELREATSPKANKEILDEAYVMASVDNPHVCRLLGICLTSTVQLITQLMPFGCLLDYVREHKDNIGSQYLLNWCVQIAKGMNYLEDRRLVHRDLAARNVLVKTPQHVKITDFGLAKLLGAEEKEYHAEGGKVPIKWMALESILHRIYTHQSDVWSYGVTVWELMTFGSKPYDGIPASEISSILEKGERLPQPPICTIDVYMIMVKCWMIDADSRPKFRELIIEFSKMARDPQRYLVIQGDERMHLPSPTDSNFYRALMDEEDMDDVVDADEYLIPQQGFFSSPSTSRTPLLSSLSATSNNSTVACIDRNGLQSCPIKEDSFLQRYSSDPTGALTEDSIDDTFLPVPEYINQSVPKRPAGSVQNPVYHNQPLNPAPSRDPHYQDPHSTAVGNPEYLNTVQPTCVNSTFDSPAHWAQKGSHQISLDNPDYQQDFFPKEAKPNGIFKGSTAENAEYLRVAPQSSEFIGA
Method: as §2, §1

EPHA2 = EPHA2 (Homo sapiens, UniProt P29317); assay: Kinase selectivity, % remaining activity; format: biochemical; settings: 10 μM compound, 10 μM ATP, duplicate
Method: as §2, §1

JNK2 = JNK2 (Homo sapiens, UniProt P45984); assay: Kinase selectivity, % remaining activity; format: biochemical; settings: 10 μM compound, 10 μM ATP, duplicate
Sequence of JNK2 (P45984 whole entry): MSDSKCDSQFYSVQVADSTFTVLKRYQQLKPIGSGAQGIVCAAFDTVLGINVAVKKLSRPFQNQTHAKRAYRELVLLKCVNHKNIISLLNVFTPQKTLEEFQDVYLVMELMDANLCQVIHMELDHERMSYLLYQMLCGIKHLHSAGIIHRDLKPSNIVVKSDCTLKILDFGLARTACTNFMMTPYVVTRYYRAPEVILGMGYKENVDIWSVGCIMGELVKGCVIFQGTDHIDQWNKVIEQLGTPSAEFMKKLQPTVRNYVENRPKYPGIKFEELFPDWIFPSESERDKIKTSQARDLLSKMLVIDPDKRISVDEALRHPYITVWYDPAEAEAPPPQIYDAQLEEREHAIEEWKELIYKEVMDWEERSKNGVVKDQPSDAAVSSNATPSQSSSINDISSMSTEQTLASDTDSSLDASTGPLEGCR
Method: as §2, §1

KDR/VEGFR2 = KDR/VEGFR2 (Homo sapiens, UniProt P35968); assay: Kinase selectivity, % remaining activity; format: biochemical; settings: 10 μM compound, 10 μM ATP, duplicate
Method: as §2, §1

LCK = LCK (Homo sapiens, UniProt P06239); assay: Kinase selectivity, % remaining activity; format: biochemical; settings: 10 μM compound, 10 μM ATP, duplicate
Method: as §2, §1

PDK1/PDPK1 = biological target: T1, PDK1/PDPK1 (Homo sapiens, UniProt O15530); assay: Kinase selectivity, % remaining activity; format: biochemical; settings: 10 μM compound, 10 μM ATP, duplicate
T1 sequence (O15530 1-556): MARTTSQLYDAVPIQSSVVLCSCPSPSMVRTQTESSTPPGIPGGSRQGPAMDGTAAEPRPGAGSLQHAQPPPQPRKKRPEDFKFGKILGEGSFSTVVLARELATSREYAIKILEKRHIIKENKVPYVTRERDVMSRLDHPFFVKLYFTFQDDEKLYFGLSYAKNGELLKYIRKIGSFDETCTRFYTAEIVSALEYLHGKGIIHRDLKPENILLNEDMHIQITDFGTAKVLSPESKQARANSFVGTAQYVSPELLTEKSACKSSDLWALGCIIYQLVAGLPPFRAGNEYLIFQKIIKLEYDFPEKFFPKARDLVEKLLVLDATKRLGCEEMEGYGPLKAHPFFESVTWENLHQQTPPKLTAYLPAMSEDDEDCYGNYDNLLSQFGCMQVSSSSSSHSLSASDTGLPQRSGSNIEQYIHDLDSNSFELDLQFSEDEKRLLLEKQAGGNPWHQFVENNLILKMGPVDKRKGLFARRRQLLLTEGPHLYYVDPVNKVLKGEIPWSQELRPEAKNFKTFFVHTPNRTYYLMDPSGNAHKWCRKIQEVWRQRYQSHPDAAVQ
Method: as §2, §1

PKA = PKA (Homo sapiens, UniProt P17612); assay: Kinase selectivity, % remaining activity; format: biochemical; settings: 10 μM compound, 10 μM ATP, duplicate
Method: as §2, §1

PKCb2 = PKCb2 (Homo sapiens, UniProt P05771); assay: Kinase selectivity, % remaining activity; format: biochemical; settings: 10 μM compound, 10 μM ATP, duplicate
Sequence of PKCb2 (P05771 1-673 isoform P05771-2): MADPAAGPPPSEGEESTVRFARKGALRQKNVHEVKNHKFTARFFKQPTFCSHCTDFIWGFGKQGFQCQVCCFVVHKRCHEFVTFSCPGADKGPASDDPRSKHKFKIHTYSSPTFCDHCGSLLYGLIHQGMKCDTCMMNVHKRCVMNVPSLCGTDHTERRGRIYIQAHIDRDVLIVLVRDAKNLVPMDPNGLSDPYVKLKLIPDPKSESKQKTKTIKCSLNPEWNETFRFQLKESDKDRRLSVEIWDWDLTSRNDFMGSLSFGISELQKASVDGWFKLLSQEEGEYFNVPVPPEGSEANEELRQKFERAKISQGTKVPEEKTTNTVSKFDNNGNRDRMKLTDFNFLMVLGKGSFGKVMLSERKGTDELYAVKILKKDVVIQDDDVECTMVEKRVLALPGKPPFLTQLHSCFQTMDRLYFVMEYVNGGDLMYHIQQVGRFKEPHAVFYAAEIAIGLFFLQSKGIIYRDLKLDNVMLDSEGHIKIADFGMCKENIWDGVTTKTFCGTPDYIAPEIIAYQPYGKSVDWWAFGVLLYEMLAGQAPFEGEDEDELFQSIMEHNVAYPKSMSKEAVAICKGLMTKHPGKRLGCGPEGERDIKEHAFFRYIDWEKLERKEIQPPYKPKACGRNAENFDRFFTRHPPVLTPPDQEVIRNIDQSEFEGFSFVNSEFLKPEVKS
Method: as §2, §1

RIPK2 = RIPK2 (Homo sapiens, UniProt O43353); assay: Kinase selectivity, % remaining activity; format: biochemical; settings: 10 μM compound, 10 μM ATP, duplicate
Sequence of RIPK2 (O43353 whole entry): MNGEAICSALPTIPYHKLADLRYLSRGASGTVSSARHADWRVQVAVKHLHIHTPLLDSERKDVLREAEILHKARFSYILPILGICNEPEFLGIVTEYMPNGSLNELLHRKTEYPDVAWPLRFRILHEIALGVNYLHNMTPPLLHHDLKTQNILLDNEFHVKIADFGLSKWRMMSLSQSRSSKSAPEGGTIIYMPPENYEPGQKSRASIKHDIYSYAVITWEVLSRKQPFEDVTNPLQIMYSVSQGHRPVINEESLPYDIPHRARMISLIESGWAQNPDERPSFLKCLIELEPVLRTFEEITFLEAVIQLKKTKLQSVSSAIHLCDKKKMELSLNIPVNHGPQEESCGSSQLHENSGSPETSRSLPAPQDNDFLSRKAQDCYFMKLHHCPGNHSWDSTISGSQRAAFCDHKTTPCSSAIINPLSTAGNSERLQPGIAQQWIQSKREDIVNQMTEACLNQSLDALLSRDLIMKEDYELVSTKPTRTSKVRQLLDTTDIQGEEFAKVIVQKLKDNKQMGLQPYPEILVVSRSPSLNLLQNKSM
Method: as §2, §1

YES/YES1 = YES/YES1 (Homo sapiens, UniProt P07947); assay: Kinase selectivity, % remaining activity; format: biochemical; settings: 10 μM compound, 10 μM ATP, duplicate
Method: as §2, §1

c-Src = c-Src (Homo sapiens, UniProt P12931); assay: Kinase selectivity, % remaining activity; format: biochemical; settings: 10 μM compound, 10 μM ATP, duplicate
Sequence of c-Src (P12931 whole entry, species assumed): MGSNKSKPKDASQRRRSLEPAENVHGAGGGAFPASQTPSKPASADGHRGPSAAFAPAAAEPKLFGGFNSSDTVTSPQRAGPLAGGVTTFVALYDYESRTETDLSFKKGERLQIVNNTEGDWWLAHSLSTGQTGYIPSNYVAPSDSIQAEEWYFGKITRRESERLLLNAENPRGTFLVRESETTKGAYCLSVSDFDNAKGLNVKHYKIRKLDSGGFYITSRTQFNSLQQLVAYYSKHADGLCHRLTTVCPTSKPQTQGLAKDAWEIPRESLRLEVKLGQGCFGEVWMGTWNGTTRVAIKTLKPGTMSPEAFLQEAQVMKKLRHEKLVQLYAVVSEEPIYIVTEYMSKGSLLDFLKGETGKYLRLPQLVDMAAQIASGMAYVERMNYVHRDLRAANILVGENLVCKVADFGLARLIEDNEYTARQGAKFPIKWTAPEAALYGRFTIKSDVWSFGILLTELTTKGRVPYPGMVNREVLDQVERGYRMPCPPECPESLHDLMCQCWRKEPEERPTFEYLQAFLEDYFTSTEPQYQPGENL
Method: as §2, §1

[2] = biological target: CK1d (casein kinase 1 delta) (Homo sapiens, UniProt P48730); assay: Kinase selectivity, % remaining activity and IC50; format: biochemical; settings: 10 μM ATP
Sequence of CK1d (casein kinase 1 delta) (P48730 whole entry): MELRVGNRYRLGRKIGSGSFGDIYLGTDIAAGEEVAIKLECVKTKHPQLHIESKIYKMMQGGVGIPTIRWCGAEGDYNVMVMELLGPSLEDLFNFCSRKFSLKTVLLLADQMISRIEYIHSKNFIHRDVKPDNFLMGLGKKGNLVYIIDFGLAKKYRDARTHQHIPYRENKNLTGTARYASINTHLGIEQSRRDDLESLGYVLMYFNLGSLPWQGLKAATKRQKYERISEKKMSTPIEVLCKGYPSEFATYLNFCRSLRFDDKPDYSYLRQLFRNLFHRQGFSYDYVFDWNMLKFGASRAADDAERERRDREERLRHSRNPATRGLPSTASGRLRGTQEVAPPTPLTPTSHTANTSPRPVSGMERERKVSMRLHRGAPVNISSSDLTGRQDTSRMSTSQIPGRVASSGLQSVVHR
Method: as §2, §1
Control compound GW5074 (Tocris®) was tested starting at 20 μM. Reactions were carried out at 10 μM ATP.

[3] = read-out: % of remaining activity (relative to DMSO)

## CNc1c(C(N)=O)c2ccccn2c1C(=O)c1ccc(F)cc1 [Compound A, 2-methyl-amino-3-[(4-fluorophenyl)carbonyl]indolizine-1-carboxamide]
[1]; Day 1
  Escape latency (time to reach the target), Mean ± SEM, Day 1: 58.1 ± 1.44 s
  Path length to reach the target, Mean ± SEM, Day 1: 9.20 ± 0.46 meter
[1]; Day 2
  Escape latency (time to reach the target), Mean ± SEM, Day 2: 53.7 ± 2.41 s
  Path length to reach the target, Mean ± SEM, Day 2: 8.60 ± 0.52 meter
[1]; Day 3
  Escape latency (time to reach the target), Mean ± SEM, Day 3: 49.4 ± 3.23 s
  Path length to reach the target, Mean ± SEM, Day 3: 7.05 ± 0.62 meter
[1]; Day 4
  Escape latency (time to reach the target), Mean ± SEM, Day 4: 45.4 ± 3.22 s
  Path length to reach the target, Mean ± SEM, Day 4: 6.94 ± 0.62 meter
CK1a1; listed as Cmp A
  % of remaining activity (relative to DMSO): 5.37%
CK1a1; [3]
  remaining activity at 10 µM: 5.17%
CK1e; listed as Cmp A
  % of remaining activity (relative to DMSO): 3.67%
CK1e; [3]
  remaining activity at 10 µM: 2.81%
CK1g1; listed as Cmp A
  % of remaining activity (relative to DMSO): 119.87%
CK1g1; [3]
  remaining activity at 10 µM: 107%
CK1g2; listed as Cmp A
  % of remaining activity (relative to DMSO): 99.83%
CK1g2; [3]
  remaining activity at 10 µM: 95.5%
EGFR; listed as Cmp A
  % of remaining activity (relative to DMSO): 52.51%
EGFR; [3]
  remaining activity at 10 µM: 55.8%
EPHA2; listed as Cmp A
  % of remaining activity (relative to DMSO): 55.67%
EPHA2; [3]
  remaining activity at 10 µM: 59%
JNK2; listed as Cmp A
  % of remaining activity (relative to DMSO): 97.26%
JNK2; [3]
  remaining activity at 10 µM: 99.9%
KDR/VEGFR2; listed as Cmp A
  % of remaining activity (relative to DMSO): 109.28%
KDR/VEGFR2; [3]
  remaining activity at 10 µM: 111%
LCK; listed as Cmp A
  % of remaining activity (relative to DMSO): 39.87%
LCK; [3]
  remaining activity at 10 µM: 39.4%
PDK1/PDPK1; listed as Cmp A
  % of remaining activity (relative to DMSO): 105.50%
PDK1/PDPK1; [3]
  remaining activity at 10 µM: 107%
PKA; listed as Cmp A
  % of remaining activity (relative to DMSO): 82.86%
PKA; [3]
  remaining activity at 10 µM: 84.3%
PKCb2; listed as Cmp A
  % of remaining activity (relative to DMSO): 111.60%
PKCb2; [3]
  remaining activity at 10 µM: 113%
RIPK2; listed as Cmp A
  % of remaining activity (relative to DMSO): 91.39%
RIPK2; [3]
  remaining activity at 10 µM: 93.5%
YES/YES1; listed as Cmp A
  % of remaining activity (relative to DMSO): 60.09%
YES/YES1; [3]
  remaining activity at 10 µM: 58.4%
c-Src; listed as Cmp A
  % of remaining activity (relative to DMSO): 60.86%
c-Src; [3]
  remaining activity at 10 µM: 61%
[2]; CK1d, 10 μM compound, duplicate, listed as Cmp A
  % of remaining activity (relative to DMSO): 0.98%
[2]; CK1d, 10 μM compound, duplicate, read-out: % of remaining activity (relative to DMSO)
  remaining activity at 10 µM: 1.15%
[2]; casein kinase 1 delta, 10-dose, 3 fold serial dilution
  IC50: 17.4 nM
